Measured values: patent US20070185161A1, “Bicyclic substituted indole-derivative steroid hormone nuclear receptor modulators” (priority 2004, published 2007)

These compounds were tested against T1, human GR (glucocorticoid receptor) (Homo sapiens, UniProt P04150) (assay: Alternative Binding Assay Protocol (Method 2), GR). Conditions: 3H-dexamethasone, 293-GR lysate, racemic mixture unless otherwise indicated.
T1 construct: expressed in transfected cells; host or cells: 293 cells
T1 sequence (P04150 1-777): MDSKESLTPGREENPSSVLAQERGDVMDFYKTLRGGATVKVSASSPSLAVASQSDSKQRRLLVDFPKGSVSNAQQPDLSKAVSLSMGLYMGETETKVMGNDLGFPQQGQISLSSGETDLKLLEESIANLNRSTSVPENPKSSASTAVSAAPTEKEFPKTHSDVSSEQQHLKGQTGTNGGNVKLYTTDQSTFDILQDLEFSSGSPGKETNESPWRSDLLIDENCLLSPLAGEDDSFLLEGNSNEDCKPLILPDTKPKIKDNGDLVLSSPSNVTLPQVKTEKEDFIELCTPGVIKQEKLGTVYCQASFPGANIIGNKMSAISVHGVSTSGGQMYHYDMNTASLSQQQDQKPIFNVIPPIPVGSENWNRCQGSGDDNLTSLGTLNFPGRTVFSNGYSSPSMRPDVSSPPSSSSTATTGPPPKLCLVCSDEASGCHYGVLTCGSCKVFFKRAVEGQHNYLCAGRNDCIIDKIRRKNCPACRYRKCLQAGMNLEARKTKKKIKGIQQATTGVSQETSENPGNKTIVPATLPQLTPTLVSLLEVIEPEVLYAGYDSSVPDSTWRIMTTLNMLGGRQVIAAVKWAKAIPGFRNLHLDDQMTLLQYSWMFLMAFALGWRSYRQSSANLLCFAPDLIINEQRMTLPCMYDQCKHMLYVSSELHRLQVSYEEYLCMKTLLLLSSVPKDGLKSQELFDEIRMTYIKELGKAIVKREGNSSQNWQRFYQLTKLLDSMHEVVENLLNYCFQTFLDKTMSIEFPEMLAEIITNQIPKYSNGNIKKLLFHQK
Experimental: Cell lysates from 293 cells overexpressing human GR (glucocorticoid receptor), AR (androgen receptor), MR (mineralocorticoid receptor) or PR (progesterone receptor) are used for competition binding assays to determine Ki values for test compounds. Briefly, competition binding assays are run in a buffer containing 20 mM Hepes, pH 7.6, 0.2 mM EDTA, 75 mM NaCl, 1.5 mM MgCl2, 20% glycerol, 20 mM sodium molybdate, 0.2 mM DTT, 20 ug/ml aprotinin and 20 ug/ml leupeptin, using either 0.3 nM ^3H-dexamethasone for GR binding, 0.36 nM ^3H-methyltrienolone for AR binding, 0.25 nM ^3H-aldosterone for MR binding, or 0.29 nM ^3H-methyltrienolone for PR binding, and either 20 ug 293-GR lysate, 22 ug 293-AR lysate, 20 ug 293-MR lysate or 40 ug 293-PR lysate per well. Competing compounds are added at various concentraions in half-log increments. Non-specific binding is determined in the presence of 500 nM dexamethasone for GR binding, 500 nM aldosterone for MR binding, or 500 nM methyltrienolone for AR and PR binding,. The binding reaction (140 μl) is incubated for overnight at […], then 70 μl of cold charcoal-dextran buffer (containing per 50 ml of assay buffer, 0.75 g of charcoal and 0.25 g of dextran) is added to each reaction. Plates are mixed 8 minutes on an orbital shaker at 4° C. Plates are then centrifuged at 3,000 rpm at 4° C. for 10 minutes. An aliquot of 120 μl of the mix is transferred to another 96-well plate and 175 μl of Wallac Optiphase “Hisafe 3” scintillation fluid is added to each well. Plates are sealed and shaken vigorously on an orbital shaker. After an incubation of 2 hrs, plates are read in a Wallac Microbeta counter. The data is used to calculate an IC50 and % Inhibition at 10 μM. The Kd for ^3H-dexamethasone for GR binding, ^3H-methyltrienolone for AR binding, ^3H-aldosterone for MR binding, or ^3H-methyltrienolone for PR binding, is determined by saturation binding. The IC50 values for compounds are converted to Ki using Cheng-Prusoff equation and the Kd determined by saturation binding assay.

Ki, ≤ 500 nM:
CC1(c2c[nH]c3c(NS(C)(=O)=O)cccc23)CCc2cc(F)cc(F)c21 (racemic) [Example 22, N-[3-(5,7-Difluoro-1-methyl-indan-1-yl)-1H-indol-7-yl]-methanesulfonamide]
CC1(c2c[nH]c3c(NS(C)(=O)=O)cccc23)CCOc2cc(F)ccc21 (racemic) [Example 34, N-[3-(7-Fluoro-4-methyl-chroman-4-yl)-1H-indol-7-yl]-methanesulfonamide]
CCC1(c2c[nH]c3c(NS(C)(=O)=O)cccc23)CCOc2cc(F)ccc21 (racemic) [Example 35, N-[3-(4-Ethyl-7-fluoro-chroman-4-yl)-1H-indol-7-yl]-methanesulfonamide]
CCC1(c2c[nH]c3c(NS(C)(=O)=O)cccc23)CCOc2cc(F)cc(F)c21 (racemic) [Example 36, N-[3-(4-Ethyl-5,7-difluoro-chroman-4-yl)-1H-indol-7-yl]-methanesulfonamide]
CS(=O)(=O)Nc1cccc2c(C3(C4CC4)CCc4cc(F)ccc43)c[nH]c12 (racemic) [Example 39, N-[3-(1-Cyclopropyl-5-fluoro-indan-1-yl)-1H-indol-7-yl]-methanesulfonamide]
CS(=O)(=O)Nc1cccc2c(C3(CCCO)CCc4cc(F)ccc43)c[nH]c12 (racemic) [Example 40, N-{3-[5-Fluoro-1-(3-hydroxy-propyl)-indan-1-yl]-1H-indol-7-yl}-methanesulfonamide]
CC1(c2c[nH]c3c(NS(C)(=O)=O)cccc23)CCc2cc(F)cc(F)c21 (single isomer, unassigned) [Example 22A, N-[3-(5,7-Difluoro-1-methyl-indan-1-yl)-1H-indol-7-yl]-methanesulfonamide]
CC1(c2c[nH]c3c(NS(C)(=O)=O)cccc23)CCc2cc(F)cc(F)c21 (single isomer, unassigned) [Example 22B, N-[3-(5,7-Difluoro-1-methyl-indan-1-yl)-1H-indol-7-yl]-methanesulfonamide]
CC1(c2c[nH]c3c(NS(C)(=O)=O)cccc23)CCOc2cc(F)ccc21 (single isomer, unassigned) [Example 34A, N-[3-(7-Fluoro-4-methyl-chroman-4-yl)-1H-indol-7-yl]-methanesulfonamide]
CC1(c2c[nH]c3c(NS(C)(=O)=O)cccc23)CCOc2cc(F)ccc21 (single isomer, unassigned) [Example 34B, N-[3-(7-Fluoro-4-methyl-chroman-4-yl)-1H-indol-7-yl]-methanesulfonamide]
CCC1(c2c[nH]c3c(NS(C)(=O)=O)cccc23)CCOc2cc(F)ccc21 (single isomer, unassigned) [Example 35A, N-[3-(4-Ethyl-7-fluoro-chroman-4-yl)-1H-indol-7-yl]-methanesulfonamide]
CCC1(c2c[nH]c3c(NS(C)(=O)=O)cccc23)CCOc2cc(F)ccc21 (single isomer, unassigned) [Example 35B, N-[3-(4-Ethyl-7-fluoro-chroman-4-yl)-1H-indol-7-yl]-methanesulfonamide]
CCC1(c2c[nH]c3c(NS(C)(=O)=O)cccc23)CCOc2cc(F)cc(F)c21 (single isomer, unassigned) [Example 36A, N-[3-(4-Ethyl-5,7-difluoro-chroman-4-yl)-1H-indol-7-yl]-methanesulfonamide]
CCC1(c2c[nH]c3c(NS(C)(=O)=O)cccc23)CCOc2cc(F)cc(F)c21 (single isomer, unassigned) [Example 36B, N-[3-(4-Ethyl-5,7-difluoro-chroman-4-yl)-1H-indol-7-yl]-methanesulfonamide]
CS(=O)(=O)Nc1cccc2c(C3(C4CC4)CCc4cc(F)ccc43)c[nH]c12 (single isomer, unassigned) [Example 39A, N-[3-(1-Cyclopropyl-5-fluoro-indan-1-yl)-1H-indol-7-yl]-methanesulfonamide]
CS(=O)(=O)Nc1cccc2c(C3(C4CC4)CCc4cc(F)ccc43)c[nH]c12 (single isomer, unassigned) [Example 39B, N-[3-(1-Cyclopropyl-5-fluoro-indan-1-yl)-1H-indol-7-yl]-methanesulfonamide]
CS(=O)(=O)Nc1cccc2c(C3(CCCO)CCc4cc(F)ccc43)c[nH]c12 (single isomer, unassigned) [Example 40A, N-{3-[5-Fluoro-1-(3-hydroxy-propyl)-indan-1-yl]-1H-indol-7-yl}-methanesulfonamide]
CS(=O)(=O)Nc1cccc2c(C3(CCCO)CCc4cc(F)ccc43)c[nH]c12 (single isomer, unassigned) [Example 40B, N-{3-[5-Fluoro-1-(3-hydroxy-propyl)-indan-1-yl]-1H-indol-7-yl}-methanesulfonamide]
CCC1(c2c[nH]c3c([N+](=O)[O-])cccc23)CCc2cc(F)ccc21 (centres unmarked) [Example 2, 3-(1-Ethyl-5-fluoro-indan-1-yl)-7-nitro-1H-indole]
CCC1(c2cn(C)c3c(NS(C)(=O)=O)cccc23)CCc2cc(F)ccc21 (centres unmarked) [Example 5, N-[3-(1-Ethyl-5-fluoro-indan-1-yl)-1-methyl-1H-indol-7-yl]-methanesulfonamide]
CCC1(c2c[nH]c3c(NC(=O)OC)cccc23)CCc2cc(F)ccc21 (centres unmarked) [Example 15, [3-(1-Ethyl-5-fluoro-indan-1-yl)-1H-indol-7-yl]-carbamic acid methyl ester]
CCC1(c2c[nH]c3c(NC(C)=O)cccc23)CCc2cc(F)ccc21 (centres unmarked) [Example 16, N-[3-(1-ethyl-5-fluoro-indan-1-yl)-1H-indol-7-yl]-acetamide]
CCC1(c2c[nH]c3c(NS(=O)(=O)N(C)C)cccc23)CCc2cc(F)ccc21 (centres unmarked) [Example 17]
CCC1(c2c[nH]c3c(NS(=O)(=O)c4ccccc4)cccc23)CCc2cc(F)ccc21 (centres unmarked) [Example 18, N-[3-(1-ethyl-5-fluoro-indan-1-yl)-1H-indol-7-yl]-benzenesulfonamide]
CCC1(c2c[nH]c3c(NS(=O)(=O)CC)cccc23)CCc2cc(F)ccc21 (centres unmarked) [Example 19, Ethanesulfonic acid [3-(1-ethyl-5-fluoro-indan-1-yl)-1H-indol-7-yl]-amide]
CS(=O)(=O)Nc1cccc2c(C3(CCCI)CCc4cc(F)ccc43)c[nH]c12 (centres unmarked) [Example 41, N-{3-[5-Fluoro-1-(3-iodo-propyl)-indan-1-yl]-1H-indol-7-yl}-methanesulfonamide]
CNCCCC1(c2c[nH]c3c(NS(C)(=O)=O)cccc23)CCc2cc(F)ccc21 (centres unmarked) [Example 42, N-{3-[5-Fluoro-1-(3-methylamino-propyl)-indan-1-yl]-1H-indol-7-yl}-methanesulfonamide]
CS(=O)(=O)Nc1cccc2c(C3(CCCN4CCOCC4)CCc4cc(F)ccc43)c[nH]c12 (centres unmarked) [Example 44, N-{3-[5-Fluoro-1-(3-morpholin-4-yl-propyl)-indan-1-yl]-1H-indol-7-yl}-methanesulfonamide]

Ki, ≤ 1000 nM:
CCC1(c2c[nH]c3c(N)cccc23)CCc2cc(F)ccc21 (centres unmarked) [Example 14, 3-(1-Ethyl-5-fluoro-indan-1-yl)-1H-indol-7-ylamine]
